Among the data in US9340555B2, “Compounds as tyrosine kinase modulators” (Allergan, Inc., priority 2009, dated 2016) are IC50 values, retold here.

Test [1] concerns the target human VEGF receptor (VEGFR-2) (Homo sapiens (Human), UniProt P35968). Nature of the test: VEGFR2 Kinase Assay (Enzymic VEGFR2). In kind it is biochemical. The conditions noted are these: His-VEGFR-2 cytoplasmic domain, 3.6 µM ATP. How it is done: VEGFR2 Kinase Assay The cytoplasmic domain of the human VEGF receptor (VEGFR-2) was expressed as a Histidine-tagged fusion protein following infection of insect cells using an His engineered baculovirus. […] Kinase assays were performed in 96 well microtiter plates that were coated overnight with 30 µg of poly-Glu-[…]:1) in 10 mM Phosphate Buffered Saline (PBS), pH 7.2-7.4. The plates were incubated with 1% BSA and then washed four times with PBS prior to starting the reaction. […] Reactions were initiated by the addition 0.5 ng of purified protein. Following a ten minute incubation at 25° C., the reactions were washed four times with PBS containing 0.05% Tween-20. 100 µl of a monoclonal anti-phosphotyrosine antibody-peroxidase conjugate was diluted 1:10000 in PBS-Tween-20 and added to the wells for 30 minutes. Following four washes with PBS-Tween-20, 100 µl of 0-phenylenediamine Dihydrochloride in Phosphate-citrate buffer, containing urea hydrogen peroxide, was added to the wells for 7 minutes as a colorimetric substrate for the peroxidase. […] IC50 values for compound inhibition were calculated directly from graphs of optical density (arbitrary units) versus compound concentration following subtraction of blank values.

A further test addresses VEGFR2 (Homo sapiens (Human), UniProt P35968). Nature of the test: VEGF Stimulated Ca++ Signal In Vitro (Cellular VEGFR2, FLIPR). The format is cell-based. As to conditions: HUVEC, VEGF stimulation (5 ng/mL), intracellular calcium.
A further test has as its target PDGFRβ (Homo sapiens (Human), UniProt P09619). Nature of the test: Enzymic PDGFRβ. In kind it is biochemical.

Chain of human VEGF receptor (VEGFR-2) (P35968 786-1356): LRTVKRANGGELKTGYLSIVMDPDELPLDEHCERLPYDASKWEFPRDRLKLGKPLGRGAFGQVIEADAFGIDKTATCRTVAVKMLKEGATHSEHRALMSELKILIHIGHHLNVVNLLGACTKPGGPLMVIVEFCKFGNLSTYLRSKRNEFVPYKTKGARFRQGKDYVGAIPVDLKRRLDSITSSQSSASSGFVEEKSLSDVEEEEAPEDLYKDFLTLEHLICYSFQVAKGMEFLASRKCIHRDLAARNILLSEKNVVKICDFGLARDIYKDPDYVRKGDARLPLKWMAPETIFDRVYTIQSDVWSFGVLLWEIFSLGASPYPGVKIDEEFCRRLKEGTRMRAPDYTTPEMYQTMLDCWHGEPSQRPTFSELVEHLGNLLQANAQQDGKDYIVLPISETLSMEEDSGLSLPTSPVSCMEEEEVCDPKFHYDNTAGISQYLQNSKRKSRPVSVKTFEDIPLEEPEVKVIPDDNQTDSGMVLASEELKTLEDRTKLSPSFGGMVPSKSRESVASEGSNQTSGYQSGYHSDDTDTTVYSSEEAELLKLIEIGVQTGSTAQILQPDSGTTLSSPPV
Chain of PDGFRβ (P09619 33-1106, species assumed): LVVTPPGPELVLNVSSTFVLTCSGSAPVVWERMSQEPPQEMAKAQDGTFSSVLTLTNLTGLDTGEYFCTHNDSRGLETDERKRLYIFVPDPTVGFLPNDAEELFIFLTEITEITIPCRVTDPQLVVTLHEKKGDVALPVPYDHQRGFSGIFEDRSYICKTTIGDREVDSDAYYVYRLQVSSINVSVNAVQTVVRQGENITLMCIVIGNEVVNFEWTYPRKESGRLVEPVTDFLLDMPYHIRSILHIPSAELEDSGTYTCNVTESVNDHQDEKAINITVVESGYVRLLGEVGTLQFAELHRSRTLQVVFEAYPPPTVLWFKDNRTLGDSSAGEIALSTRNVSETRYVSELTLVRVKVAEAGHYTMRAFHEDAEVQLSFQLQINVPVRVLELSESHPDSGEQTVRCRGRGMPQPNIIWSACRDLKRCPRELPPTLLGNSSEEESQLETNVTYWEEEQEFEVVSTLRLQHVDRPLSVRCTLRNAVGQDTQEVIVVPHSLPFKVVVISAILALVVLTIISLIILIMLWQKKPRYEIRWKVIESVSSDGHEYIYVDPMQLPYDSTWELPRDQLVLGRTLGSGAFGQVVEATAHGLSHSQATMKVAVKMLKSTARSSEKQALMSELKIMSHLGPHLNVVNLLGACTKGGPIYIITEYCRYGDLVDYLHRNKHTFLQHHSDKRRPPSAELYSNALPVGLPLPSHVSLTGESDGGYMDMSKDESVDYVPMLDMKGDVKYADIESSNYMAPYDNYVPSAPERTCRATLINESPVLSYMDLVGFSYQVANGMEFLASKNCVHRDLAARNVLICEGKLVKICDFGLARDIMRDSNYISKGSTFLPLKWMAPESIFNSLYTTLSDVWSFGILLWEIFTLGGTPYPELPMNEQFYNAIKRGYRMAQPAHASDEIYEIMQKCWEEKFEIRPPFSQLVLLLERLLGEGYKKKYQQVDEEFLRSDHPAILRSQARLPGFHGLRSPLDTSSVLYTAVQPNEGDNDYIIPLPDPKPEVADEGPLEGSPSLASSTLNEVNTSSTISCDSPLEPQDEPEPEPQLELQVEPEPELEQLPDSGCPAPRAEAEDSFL
Chain of VEGFR2 (P35968 20-1356): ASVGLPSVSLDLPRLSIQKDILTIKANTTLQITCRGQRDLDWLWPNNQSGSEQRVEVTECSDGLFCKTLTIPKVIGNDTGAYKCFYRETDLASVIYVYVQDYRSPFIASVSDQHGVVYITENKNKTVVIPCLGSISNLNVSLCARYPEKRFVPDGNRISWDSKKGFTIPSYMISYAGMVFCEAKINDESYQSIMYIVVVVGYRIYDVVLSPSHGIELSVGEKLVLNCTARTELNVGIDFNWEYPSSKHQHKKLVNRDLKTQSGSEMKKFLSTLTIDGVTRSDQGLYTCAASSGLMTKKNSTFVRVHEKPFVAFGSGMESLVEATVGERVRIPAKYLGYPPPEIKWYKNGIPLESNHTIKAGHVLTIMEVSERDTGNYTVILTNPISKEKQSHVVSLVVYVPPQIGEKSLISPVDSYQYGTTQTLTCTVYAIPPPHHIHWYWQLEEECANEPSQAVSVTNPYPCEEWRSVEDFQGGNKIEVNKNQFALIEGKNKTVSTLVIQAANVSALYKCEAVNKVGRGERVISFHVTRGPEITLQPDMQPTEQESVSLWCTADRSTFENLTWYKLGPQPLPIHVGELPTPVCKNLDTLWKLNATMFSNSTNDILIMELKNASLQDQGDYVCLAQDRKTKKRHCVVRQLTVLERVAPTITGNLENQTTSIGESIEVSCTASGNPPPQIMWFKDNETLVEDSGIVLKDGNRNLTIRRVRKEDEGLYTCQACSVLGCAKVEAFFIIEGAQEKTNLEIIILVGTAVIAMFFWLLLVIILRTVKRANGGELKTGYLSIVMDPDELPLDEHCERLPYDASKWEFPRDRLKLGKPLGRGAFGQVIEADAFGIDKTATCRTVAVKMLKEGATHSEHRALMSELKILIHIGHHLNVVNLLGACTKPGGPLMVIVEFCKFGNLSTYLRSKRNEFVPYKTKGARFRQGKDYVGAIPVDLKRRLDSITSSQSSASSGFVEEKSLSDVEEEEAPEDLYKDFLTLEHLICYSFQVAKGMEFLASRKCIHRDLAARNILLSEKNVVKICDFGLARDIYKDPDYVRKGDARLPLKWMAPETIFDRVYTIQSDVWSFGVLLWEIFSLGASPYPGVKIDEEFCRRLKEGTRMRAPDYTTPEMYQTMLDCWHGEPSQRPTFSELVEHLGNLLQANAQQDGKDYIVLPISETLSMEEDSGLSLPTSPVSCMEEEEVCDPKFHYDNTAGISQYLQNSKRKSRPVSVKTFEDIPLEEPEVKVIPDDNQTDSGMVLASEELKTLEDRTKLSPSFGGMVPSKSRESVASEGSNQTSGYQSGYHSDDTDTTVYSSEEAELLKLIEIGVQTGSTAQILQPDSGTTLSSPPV

A word on the IC50: it is the concentration that inhibits the measured activity by half. Compound `COC(=O)[C@@H]1C[C@@H](O)CN1CCCNC(=O)c1cc2nccc(Oc3ccc(NC(=O)Nc4cc(C)ccc4F)cc3)c2s1` (relative stereo) [Example 17, methyl rel-(2R,4S)-1-{3-[({7-[4-({[(2-fluoro-5-methylphenyl)amino]carbonyl}amino)phenoxy]thieno[3,2-b]pyridin-2-yl}carbonyl)amino]propyl}-4-hydroxypyrrolidine-2-carboxylate] had an IC50 in test [1] of 4 nM.

`COC(=O)c1cc2nccc(Oc3ccc(NC(=O)Nc4cc(C)ccc4F)cc3)c2s1` [Compound F1, Methyl 7-[4-({[(2-fluoro-5-methylphenyl)amino]carbonyl}amino)phenoxy]thieno[3,2-b]pyridine-2-carboxylate]: the results for the 50% inhibitory concentration (IC50) (on VEGFR2; in test [1]) were 2 nM and 18 nM, respectively.

For the compound `COC(=O)c1cc2nccc(Oc3cccc(NC(=O)Nc4cc(C)ccc4F)c3)c2s1` [Compound F3, Methyl 7-[3-({[(2-fluoro-5-methylphenyl)amino]carbonyl}amino)phenoxy]thieno[3,2-b]pyridine-2-carboxylate], the IC50 on VEGFR2 turned out to be 35 nM; in test [1], 21 nM.

As to `COC(=O)c1cc2nccc(-c3ccc(NC(=O)Nc4cc(C)ccc4F)cc3)c2s1` [Compound F4, Methyl 7-[4-({[(2-fluoro-5-methylphenyl)amino]carbonyl}amino)phenyl]thieno[3,2-b]pyridine-2-carboxylate], the IC50 (on VEGFR2; in test [1]) was 10000 nM each time.

`Cc1ccc(F)c(NC(=O)Nc2ccc(-c3ccnc4cc(C(=O)O)sc34)cc2)c1` [Compound F5, 7-[4-({[(2-fluoro-5-methylphenyl)amino]carbonyl}amino)phenyl]thieno[3,2-b]pyridine-2-carboxylic acid]: the half-inhibitory concentration (IC50) (on VEGFR2; in test [1]) was 10000 nM throughout.

In test [1], `Cc1ccc(F)c(NC(=O)Nc2ccc(Oc3ccnc4cc(C(=O)NCCC(=O)O)sc34)cc2)c1` [Compound F6, 3-[({7-[4-({[(2-fluoro-5-methylphenyl)amino]carbonyl}amino)phenoxy]thieno[3,2-b]pyridin-2-yl}carbonyl)amino]propanoic acid] had a half-maximal inhibitory concentration (IC50) of 11 nM.

Compound `Cc1ccc(F)c(NC(=O)Nc2ccc(Oc3ccnc4cc(C(=O)NCCC(=O)O)sc34)cc2F)c1` [Compound F7, 3-[({7-[3-fluoro-4-({[(2-fluoro-5-methylphenyl)amino]carbonyl}amino)phenoxy]thieno[3,2-b]pyridin-2-yl}carbonyl)amino]propanoic acid] gave a 50% inhibitory concentration (IC50) in test [1] of 10 nM.

Take `Cc1ccc(F)c(NC(=O)Nc2ccc(Oc3ccnc4cc(C(=O)O)sc34)cc2F)c1` [Compound F8, 7-[3-fluoro-4-({[(2-fluoro-5-methylphenyl)amino]carbonyl}amino)phenoxy]thieno[3,2-b]pyridine-2-carboxylic acid]: the midpoint of inhibition in test [1], the IC50, lay at 11 nM.

Regarding `COC(=O)C1CCCN1CCCNC(=O)c1cc2nccc(Oc3ccc(NC(=O)Nc4cc(C)ccc4F)c(F)c3)c2s1` (centres unmarked) [Example 42, methyl 1-{3-[({7-[3-fluoro-4-({[(2-fluoro-5-methylphenyl)amino]carbonyl}amino)phenoxy]thieno[3,2-b]pyridin-2-yl}carbonyl)amino]propyl}pyrrolidine-2-carboxylate], the values for the IC50 (on VEGFR2; in test [1]) were 4 nM and 6 nM, respectively.

In the case of `Cc1ccc(F)c(NC(=O)Nc2ccc(Oc3ccnc4cc(C(=O)NCCCN5CCCC5)sc34)cc2F)c1` [Example 43, 7-[3-fluoro-4-({[(2-fluoro-5-methylphenyl)amino]carbonyl}amino)phenoxy]-N-(3-pyrrolidin-1-ylpropyl)thieno[3,2-b]pyridine-2-carboxamide], the concentration for half-maximal inhibition (IC50) was 6 nM at VEGFR2 and 3 nM in test [1].

For `Cc1ccc(F)c(NC(=O)Nc2ccc(Oc3ccnc4cc(C(=O)NCCCNC(=O)OC(C)(C)C)sc34)cc2F)c1` [Example 44, tert-butyl {3-[({7-[3-fluoro-4-({[(2-fluoro-5-methylphenyl)amino]carbonyl}amino)phenoxy]thieno[3,2-b]pyridin-2-yl}carbonyl)amino]propyl}carbamate], the IC50 at VEGFR2 came to 16 nM; in test [1], 11 nM.

Take `Cc1ccc(F)c(NC(=O)Nc2ccc(Oc3ccnc4cc(C(=O)NCCCN)sc34)cc2F)c1` [Example 45, N-(3-aminopropyl)-7-[3-fluoro-4-({[(2-fluoro-5-methylphenyl)amino]carbonyl}amino)phenoxy]thieno[3,2-b]pyridine-2-carboxamide]: the figures for the IC50 (on VEGFR2; in test [1]) were 10 nM and 7 nM, respectively.

Regarding `Cc1ccc(F)c(NC(=O)Nc2ccc(Oc3ccnc4cc(C(=O)N[C@@H](CCC(=O)OC(C)(C)C)C(=O)O)sc34)cc2F)c1` [Example 48, (2S)-5-tert-butoxy-2-[({7-[3-fluoro-4-({[(2-fluoro-5-methylphenyl)amino]carbonyl}amino)phenoxy]thieno[3,2-b]pyridin-2-yl}carbonyl)amino]-5-oxopentanoic acid], in test [1], the midpoint of inhibition, the IC50, lay at 7 nM.

`Cc1ccc(F)c(NC(=O)Nc2ccc(Oc3ccnc4cc(C(=O)NCCCO)sc34)cc2F)c1` [Example 53, 7-[3-fluoro-4-({[(2-fluoro-5-methylphenyl)amino]carbonyl}amino)phenoxy]-N-(3-hydroxypropyl)thieno[3,2-b]pyridine-2-carboxamide]: in test [1], half-maximal inhibition (IC50) was put at 12 nM.

In test [1], `Cc1ccc(F)c(NC(=O)Nc2ccc(Oc3ccnc4cc(C(=O)N=S(C)(C)=O)sc34)cc2F)c1` [Example 58, N-[dimethyl(oxido)-lambda˜4˜-sulfanylidene]-7-[3-fluoro-4-({[(2-fluoro-5-methylphenyl)amino]carbonyl}amino)phenoxy]thieno[3,2-b]pyridine-2-carboxamide] showed an IC50 of 3 nM.

With `Cc1ccc(F)c(NC(=O)Nc2ccc(Oc3ccnc4cc(C(=O)N=S(C)(C)=O)sc34)cc2)c1` [Example 61, N-[dimethyl(oxido)-lambda˜4˜-sulfanylidene]-7-[4-({[(2-fluoro-5-methylphenyl)amino]carbonyl}amino)phenoxy]thieno[3,2-b]pyridine-2-carboxamide], in test [1], the concentration for half-maximal inhibition (IC50) came to 2 nM.

Turning to `COC(=O)c1cc2nccc(Oc3cccc(NC(=O)c4occc4C)c3)c2s1` [Example 71, Methyl 7-{3-[(3-methyl-2-furoyl)amino]phenoxy}thieno[3,2-b]pyridine-2-carboxylate], the half-inhibitory concentration (IC50) against PDGFRβ worked out at 169 nM; in test [1], 24 nM.

With `CCNC(=O)c1cc2nccc(Oc3cccc(NC(=O)c4occc4C)c3)c2s1` [Example 73, N-ethyl-7-{3-[(3-methyl-2-furoyl)amino]phenoxy}thieno[3,2-b]pyridine-2-carboxamide], the figures for the IC50 (against PDGFRβ; in test [1]) were 191 nM and 9 nM, respectively.

Regarding `CCN(CC)C(=O)c1cc2nccc(Oc3cccc(NC(=O)c4occc4C)c3)c2s1` [Example 74, N,N-diethyl-7-{3-[(3-methyl-2-furoyl)amino]phenoxy}thieno[3,2-b]pyridine-2-carboxamide], the 50% inhibitory concentration (IC50) on PDGFRβ is 424 nM; in test [1], 27 nM.

Consider `Cc1ccoc1C(=O)Nc1cccc(Oc2ccnc3cc(C(=O)NCCCO)sc23)c1` [Example 76, N-(3-hydroxypropyl)-7-{3-[(3-methyl-2-furoyl)amino]phenoxy}thieno[3,2-b]pyridine-2-carboxamide], for which the IC50 came to 146 nM at PDGFRβ and 11 nM in test [1].

On to `Cc1ccoc1C(=O)Nc1cccc(Oc2ccnc3cc(C(=O)NCCO)sc23)c1` [Example 77, N-(2-hydroxyethyl)-7-{3-[(3-methyl-2-furoyl)amino]phenoxy}thieno[3,2-b]pyridine-2-carboxamide], for which the half-inhibitory concentration (IC50) against PDGFRβ was found to be 392 nM; in test [1], 17 nM.

On to `Cc1ccoc1C(=O)Nc1cccc(Oc2ccnc3cc(C(=O)NCCc4nn[nH]n4)sc23)c1` [Example 78, 7-{3-[(3-methyl-2-furoyl)amino]phenoxy}-N-[2-(2H-tetrazol-5-yl)ethyl]thieno[3,2-b]pyridine-2-carboxamide], for which the IC50 is 323 nM on PDGFRβ and 14 nM in test [1].

On to `Cc1ccoc1C(=O)Nc1cccc(Oc2ccnc3cc(C(=O)OCCCO)sc23)c1` [Example 79, 3-hydroxypropyl 7-{3-[(3-methyl-2-furoyl)amino]phenoxy}thieno[3,2-b]pyridine-2-carboxylate], for which the values for the IC50 (on PDGFRβ; in test [1]) were 146 nM and 9 nM, respectively.

Turning to `Cc1ccoc1C(=O)Nc1cccc(Oc2ccnc3cc(C(=O)OCCO)sc23)c1` [Example 80, 2-hydroxyethyl 7-{3-[(3-methyl-2-furoyl)amino]phenoxy}thieno[3,2-b]pyridine-2-carboxylate], the half-inhibitory concentration (IC50) on PDGFRβ is 212 nM; in test [1], 17 nM.

As to `COCCOC(=O)c1cc2nccc(Oc3cccc(NC(=O)c4occc4C)c3)c2s1` [Example 81, 2-methoxyethyl 7-{3-[(3-methyl-2-furoyl)amino]phenoxy}thieno[3,2-b]pyridine-2-carboxylate], the values for the IC50 (against PDGFRβ; in test [1]) were 273 nM and 19 nM, respectively.

Turning to `COC(=O)CNCCCNC(=O)c1cc2nccc(Oc3cccc(NC(=O)c4occc4C)c3)c2s1` [Example 82, Methyl [(3-{[(7-{3-[(3-methyl-2-furoyl)amino]phenoxy}thieno[3,2-b]pyridin-2-yl)carbonyl]amino}propyl)amino]acetate], the IC50 against PDGFRβ is 238 nM; in test [1], 11 nM.
